Assay results from PMC7938888, “Antidepressant drugs act by directly binding to TRKB neurotrophin receptors” (Cell, 2021).

Legend:
TRKA = biological target: T1, TRKA (Homo sapiens, UniProt P04629); assay: Cell-free ligand binding assay, TRKA from MG87 cells; details: compared to TRKB
T1 construct: expressed in transfected cells; host or cells: MG87.TRKA (NIH 3T3 mouse fibroblasts stably expressing TRKA)

TRKB [1] = biological target: T2, TRKB (Mus musculus, UniProt P15209); assay: In situ proximity ligation assay (PLA) in TRKB-expressing N2A cells; assay type: cell-based; set-up: expressed in transfected cells; host or cells: N2A; details: biotinylated fluoxetine 10 μM/15 min
T2 sequence (P15209 32-821): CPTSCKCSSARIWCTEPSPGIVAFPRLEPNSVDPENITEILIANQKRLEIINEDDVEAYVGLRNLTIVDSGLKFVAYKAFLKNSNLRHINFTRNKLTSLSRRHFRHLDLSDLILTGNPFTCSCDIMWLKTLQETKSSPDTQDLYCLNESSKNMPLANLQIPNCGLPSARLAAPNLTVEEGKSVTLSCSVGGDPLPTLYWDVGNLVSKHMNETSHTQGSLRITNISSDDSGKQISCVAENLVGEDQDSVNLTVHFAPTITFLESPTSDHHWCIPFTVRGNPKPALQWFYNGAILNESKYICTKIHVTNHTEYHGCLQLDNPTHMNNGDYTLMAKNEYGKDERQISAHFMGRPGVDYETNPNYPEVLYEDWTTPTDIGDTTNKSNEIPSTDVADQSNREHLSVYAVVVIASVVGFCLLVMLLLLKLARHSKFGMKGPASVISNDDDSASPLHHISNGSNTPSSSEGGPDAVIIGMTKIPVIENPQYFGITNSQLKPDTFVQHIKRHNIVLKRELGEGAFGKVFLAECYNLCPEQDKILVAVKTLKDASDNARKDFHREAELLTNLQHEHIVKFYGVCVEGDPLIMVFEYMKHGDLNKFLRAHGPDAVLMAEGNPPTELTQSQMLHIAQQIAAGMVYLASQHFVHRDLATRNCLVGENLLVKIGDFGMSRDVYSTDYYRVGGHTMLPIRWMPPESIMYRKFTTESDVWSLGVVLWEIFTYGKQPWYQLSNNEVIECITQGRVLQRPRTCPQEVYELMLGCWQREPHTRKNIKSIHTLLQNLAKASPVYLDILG
Experimental: Proximity ligation assay was done with Duolink In Situ Red Starter Kit Mouse/Goat (#DUO92103, Sigma-Aldrich), following manufacturer’s instructions. […] Cells were fixed with PFA 4% for 15 min, washed, and incubated in Duolink blocking buffer for 1h at 37°C. Then, the coverslips were incubated with streptavidin-conjugated HRP (1:5000 in Duolink antibody diluent) for 45 min at room temperature. After washing twice in Duolink washing buffer A, samples were incubated overnight at 4°C with a mix of goat anti-TRKB (1:1000, #AF1494, R&D System) and mouse anti-HRP (1:1000, #200-3138-0100, Rockland Immunochemicals) diluted in Duolink antibody diluent. After washing in Duolink washing buffer A, samples were incubated for 1h at 37°C with a mix of minus and plus probes diluted 1:5 in Duolink antibody diluent. Then, ligation of probes with connector oligo was done by washing the samples in washing buffer A, and incubating for 30min at 37°C with ligase (25 U/ml) diluted in the Duolink ligation buffer. Amplification was done by washing the samples in the washing buffer A, and incubating for 100min at 37°C with polymerase (125 U/ml) diluted in the amplification buffer. Coverslips were washed in buffer B, then in buffer B diluted 1:100 in milliQ water, and mounted in Duolink in situ mounting medium with DAPI. All incubation steps were done in a humidified chamber. […]

TRKB [2] = biological target: T2, TRKB; assay: Cell-free ligand binding assay on immobilised TRKB from HEK293T lysates; set-up: wild-type GFP-tagged full length TRKB or the GFP-tagged Y433F TRKB mutant; host or cells: HEK293T; details: read-out: Kd of biotinylated FLX binding to immunoprecipitated TRKB; biotinylated ligand 0-100 μM
Experimental: The cell-free assays (binding assays) were performed in white 96-well plates, based on the protocol used for western-blotting or ELISA ([Baeza-Raja et al., 2016]; [Das et al., 2015]). The plates were precoated with anti-GFP, anti-FLAG, anti-TRK or anti-TRKB antibody (1:1000) in carbonate buffer (pH 9.8), ON at 4°C. Following blocking with 3% BSA in PBS buffer (2 h at RT), 120 ug of total protein from each sample (of lysates from HEK293T cells transfected to overexpress GFP-TRKB.wt or GFP-TRKB.Y433F) were added and incubated overnight at 4°C under agitation. […] The luminescence was determined via HRP-conjugated streptavidin (1:10000, 1h, RT) activity reaction with ECL by a plate reader. The luminescence signal from blank wells (containing all the reagents but the sample lystates, substituted by the blocking buffer) was used as background. The specific signal was then calculated by subtracting the values of blank wells from the values of the samples with matched concentration of the biotinylated ligand. For Figure 2E, the precipitated TRKB.wt or Y433F was incubated with tritiated imipramine (0-30μM) and the radioactive emission of the ligand was determined by scintillation (OptiPhase Supermix cocktail: #1200-439; MicroBeta2, Perkin-Elmer). The scintillation signal from blank wells was used as background, and the specific signal was then calculated by subtracting the values of blank wells from the values of the samples with matched concentration of the radioactive ligand.

TRKB:PLC-γ1 interaction = TRKB:PLC-γ1 interaction ELISA in cortical cells; assay type: cell-based, rat; details: pravastatin 1 μM/3 days
Experimental: The TRKB:pY (phosphorylated TRKB), TRKB:PLC-γ1, PLC-γ1:pTRKB.Y816 interactions and were determined by ELISA, based on the general method described in literature ([Antila et al., 2014]; [Fred et al., 2019]), with minor adjustments. Briefly, white 96-well plates (OptiPlate 96F-HB, Perkin Elmer) were coated with capturing anti-TRKB or PLC-γ1 antibody (1:1000) in carbonate buffer (pH = 9.8) overnight (ON) at 4°C. Following a blocking step with 2%BSA in TBS-T (2 h, RT), samples were incubated ON at 4°C. The incubation with antibody against pTRKB.Y816, PLC-γ1 or pY (1:2000, ON, 4°C) was followed by HRP-conjugated anti-Rb IgG (1:5000, 2h, RT) or HRP-conjugated streptavidin (1:10000, 2h, RT). Finally, the chemiluminescent signal generated by the reaction with ECL was analyzed in a plate reader (Varioskan Flash, Thermo Scientific).

hippocampal cells = assay: BDNF-induced neurite branching in hippocampal cells (Sholl analysis); assay type: cell-based, rat; details: pravastatin 1 μM/3 days, BDNF 10 ng/ml/3 days
Experimental: MG87.TRKB or primary cultured cortical cells were fixed with 4% paraformaldehyde in PBS, and unspecific binding sites were blocked with a blocking buffer (5% normal donkey serum, 1% Bovine serum albumin, 0.1% gelatin, 0.1% Triton X-100, 0.05% Tween-20 in PBS). The MG87.TRKB cells were stained with anti-GFP, while primary cultures were incubated with anti-actin. The fluorescence was obtained following incubation with secondary antibodies. The coverslips were mounted with Dako Fluorescence Mounting Medium (#S3023). Images were acquired with Zeiss LSM710 confocal microscope (63x oil objective).
For Sholl analysis of cultured hippocampal cells, confocal images were processed using FIJI ImageJ (NIH software), and the number of branches in the 80-μm range from the cell soma were counted using FIJI plugin.

E18 cortical cells = assay: Cell viability (CellTiterGlo) of cortical cells; assay type: cell-based, rat; details: pravastatin 2 μM for 5 days
Experimental: The cell viability assay was performed using CellTiterGlo (#G7571; Promega) according to manufacturer’s instructions. Briefly, equal amounts of medium and the mixture of regents A and B were added to the E18 cortical cells (DIV8) cultivated in clear bottom 96-well plates and incubated for 40min. The luminescence was analyzed in a plate reader.

Sprague-Dawley rats = assay: BDNF-induced LTP in dentate gyrus of anesthetized rats; assay type: in vivo, rat; details: pravastatin 10 mg/kg/day/ in drinking water
Experimental: In vivo electrophysiology. Intrahippocampal BDNF infusion was performed as described previously ([Messaoudi et al., 1998]). The experiments were carried out on 20 adult male Sprague-Dawley rats (15 weeks old, Janvier, France). Rats were housed in the animal facility for 1-week prior to the start of drug administration. […]
For electrophysiological experiments, rats were anesthetized with an intraperitoneal injection of urethane (U2500, Sigma-Aldrich) 1.5 g/kg body weight, positioned in a stereotaxic frame. The body temperature was constantly monitored and maintained at 37°C with an electric heating pad. Holes were drilled in the skull and a concentric bipolar stimulating electrode (Tip separation 500micrometers; SNEX 100; Rhodes Medical Instruments, Woodland Hills, CA) was positioned in the angular bundle for stimulation of the medial perforant path (7.9 mm posterior to bregma, 4.2 mm lateral to the midline, and 2.5 mm below the dura. […]
Responses were allowed to stabilize for 1 hour at a stimulation intensity that produced a population spike 30% of maximum. […] Evoked responses were recorded for 120 min post infusion. Recorded field potentials were amplified, filtered (0.1 Hz to 10 kHz), and digitized (25 kHz). Electrophysiological data was analyzed using Datawave Technologies Software company. […]

mice = assay: Object location memory (OLM) test; assay type: in vivo, mouse; details: wild-type mice, pravastatin co-treatment
Experimental: Object-location memory (OLM): this test was performed in a square arena (28cm side) with opaque walls containing cues (black stripes or spots). The adult male and female mice (18-22 weeks old) were placed for 3 consecutive days (15min per session) in the arena with two identical objects (table tennis balls glued to caps of 50ml Falcon tubes) in the same position throughout the sessions (pretest).

T1 sequence (P04629 33-796): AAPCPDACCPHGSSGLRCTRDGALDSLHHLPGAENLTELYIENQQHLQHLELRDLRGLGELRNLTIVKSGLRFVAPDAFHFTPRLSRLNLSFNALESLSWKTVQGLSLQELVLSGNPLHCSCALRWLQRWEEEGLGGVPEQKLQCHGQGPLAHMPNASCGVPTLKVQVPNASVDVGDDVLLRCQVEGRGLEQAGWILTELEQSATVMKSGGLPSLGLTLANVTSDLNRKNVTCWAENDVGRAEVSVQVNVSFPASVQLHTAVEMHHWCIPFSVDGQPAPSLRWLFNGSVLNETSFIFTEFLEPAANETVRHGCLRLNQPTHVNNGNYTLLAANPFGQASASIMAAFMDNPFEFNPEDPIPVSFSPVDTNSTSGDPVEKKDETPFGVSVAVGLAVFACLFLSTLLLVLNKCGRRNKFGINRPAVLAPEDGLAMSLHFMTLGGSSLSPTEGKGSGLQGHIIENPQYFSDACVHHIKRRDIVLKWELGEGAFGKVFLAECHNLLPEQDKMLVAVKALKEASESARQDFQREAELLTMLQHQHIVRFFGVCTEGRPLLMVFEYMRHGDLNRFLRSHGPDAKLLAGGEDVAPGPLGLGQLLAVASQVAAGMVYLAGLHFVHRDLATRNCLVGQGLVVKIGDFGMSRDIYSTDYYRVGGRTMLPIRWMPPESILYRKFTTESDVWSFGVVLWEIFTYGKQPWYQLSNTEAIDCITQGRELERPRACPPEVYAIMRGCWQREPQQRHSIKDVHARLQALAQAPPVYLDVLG

Row | Structure (SMILES) | interaction of biotinylated fluoxetine with TRKA (TRKA) | PLA signal between biotinylated FLX and TRKB (TRKB [1]) | Kd (TRKB [2]) | effect on BDNF-induced TRKB-PLC-γ1 interaction (TRKB:PLC-γ1 interaction) | effect on BDNF-induced neurite branching (hippocampal cells) | neuronal survival (E18 cortical cells) | effect on BDNF-induced increase in synaptic strength (LTP) (Sprague-Dawley rats) | effect on R,R-HNK-improved object location memory (mice)
1 | CN(CCC(Oc1ccc(C(F)(F)F)cc1)c1ccccc1)C(=O)CCOCCOCCOCCOCCNC(=O)CCCC[C@@H]1SC[C@@H]2NC(=O)N[C@@H]21 (some centres unmarked) [biotinylated FLX] | negligible | robust PLA signal | 2420 nM |  |  |  |  | 
2 | CC[C@H](C)C(=O)O[C@H]1C[C@H](O)C=C2C=C[C@H](C)[C@H](CC[C@@H](O)C[C@@H](O)CC(=O)O)[C@H]21 [pravastatin] |  |  |  | prevented | prevented | reduced neuronal survival | partially prevented | prevented
